The record followed here is patent publication US10604514B2, “6-(5-membered heteroaryl)isoquinolin-3-yl carboxamides and preparation and use thereof” (Samumed, LLC, priority 2017, dated 2020).

Broadly, the EC50 is the midpoint of the concentration-response curve.

Test [1] deals with SW480 colon carcinoma cells. The experiment in a line: Cell viability assay (CellTiter-Glo) in SW480 cells.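 For all read-outs here: SW480 cells stably carrying an Sp5-luciferase TCF/LEF reporter, luminescent ATP signal as viability measure, DMSO-treated cells as control.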 Type of test: cell-based, human. As to conditions: Homo sapiens; for EC50: 96 h, cell viability, SW480 cells, four days, CellTiter-Glo; for inhibition at 10 µM: SW480, read-out: percent inhibition at 10 μM. For orientation: Cellular ATP, detected with luciferase, serves as a proxy for viable cell number.

Test [2] has as its target GSK3β kinase (Homo sapiens (Human), UniProt P49841). The experiment in a line: GSK3β kinase assay (Ser/Thr 09 peptide Z-lyte, FRET).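 Note: Coumarin/fluorescein emission ratio converted to percent phosphorylation against unphosphorylated (0%) and phosphorylated (100%) controls, 1 h compound incubation at room temperature, 11-point threefold dilutions from 10 µM, run in duplicate.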 In kind it is biochemical. To be noted: method text calls the value IC50.
Description: Representative compounds were screened using the assay procedure for GSK30 kinase activity as described below.
Each compound is dissolved in DMSO as a 10 mM stock and used to prepare compound source plates. Serial dilution (1:3, 11-point dose-response curves from 10 M to 0.0003 μM) and compound transfer was performed using the ECHO 550 (Labcyte, Sunnyvale, Calif.) into 1536-well black-walled round bottom plates (Corning).
This is a non-radioactive assay using fluorescence resonance energy transfer (FRET) between coumarin and fluorescein to detect kinase activity which is represented as ratio of coumarin emission/fluorescein emission.
The mixture is allowed to incubate with the representative compounds for one hour at room temperature. All reactions were performed in duplicate. Unphosphorylated (“0% Control”) and phosphorylated (“100% control”) forms of Ser/Thr 18 serve as control reactions.
After incubation, diluted Development Buffer is added to the reaction and allowed to further incubate for one hour at room temperature.
The percent phosphorylation is then calculated using the following formula: [1−((Em ratio×F100%)−C100%)/((C0%−C100%)+(Em ratio×(F100%−F0%)))].
Dose-response curves are generated and inhibitory concentration (IC50) values are calculated using non-linear regression curve fit in the Dotmatics' Studies Software (Bishops Stortford, UK).
In test [3] the test system is LL29 cells (primary human fibroblasts derived from IPF patients), α-smooth muscle actin. The experiment in a line: Inhibition of fibrotic process: αSMA in TGF-β1-treated primary human fibroblasts from IPF patients (LL29 cells). As to conditions: Homo sapiens, Fibroblast; for EC50: 96 h, % αSMA-positive LL29 cells, TGF-β1 20 ng/mL, 4 days. Type of test: cell-based. The procedure, abridged:
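IPF-patient lung fibroblasts (LL29) were stimulated with TGF-β1 (20 ng/mL) in 1% FBS medium with compound (11-point 1:2 series, 0.1% DMSO) for 4 days at 37 °C. Fixed cells were immunostained for αSMA and imaged, excluding SYTOX-positive dead cells. The % αSMA-positive cells was normalized to TGF-β1/DMSO control wells.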

In test [4] the test system is Tau phosphorylation at Ser396 (pSer396), SH-SY5Y cells. The experiment in a line: Tau phosphorylation at Ser396 (pSer396) in SH-SY5Y cells, ELISA/western blot.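 Note: cell lysates probed for reduced Tau pSer396 via ELISA (colorimetric) or western blot (chemiluminescence), both with one shared pSer396 antibody, EC50 for lowering phosphorylation.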 In kind it is cell-based, human. To be noted: Homo sapiens; SH-SY5Y cells, overnight (16-18 h); read-out: pSer396 Tau EC50. A general note: An ELISA detects its analyte on a solid surface through an enzyme-linked reagent.

Test [5] concerns the target DYRK1A kinase (Homo sapiens (Human), UniProt Q13627). Nature of the test: DYRK1A kinase assay (Ser/Thr 18 peptide Z-lyte, FRET).
Description: Each compound was dissolved in DMSO as a 10 mM stock and used to prepare compound source plates.
This is a non-radioactive assay using fluorescence resonance energy transfer (FRET) between coumarin and fluorescein to detect kinase activity which is represented as a ratio of coumarin emission/fluorescein emission.
The mixture was allowed to incubate with the representative compounds for one hour at room temperature. All reactions were performed in duplicate. Unphosphorylated (“0% Control”) and phosphorylated (“100% control”) forms of Ser/Thr 18 served as control reactions. Additionally, an 11-point dose-response curve of Staurosporine (1 uM top) was run to serve as a positive compound control.
After incubation, Development Reagent A was diluted in Development Buffer then added to the reaction and allowed to further incubate for one hour at room temperature.
The percent phosphorylation was then calculated using the following formula: [1−((Em ratio×F100%)−C100%)/((C0%−C100%)+(Em ratio×(F100%−F0%)))]. Dose-response curves were generated and inhibitory concentration (IC50) values were calculated using non-linear regression curve fit in the Dotmatics' Studies Software (Bishops Stortford, UK).
Test [6] deals with Wnt activity (Sp5-Luc reporter in SW480 colon carcinoma cells). The experiment in a line: Wnt activity screening assay (Sp5-Luc reporter gene assay). Type of test: cell-based, human. To be noted: Homo sapiens; for inhibition at 10 µM: SW480, read-out: percent inhibition at 10 μM; for EC50: Sp5-Luc reporter, SW480 cells, 36 to 48 hours. In a few lines: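 SW480 cells stably carrying an Sp5 promoter (eight TCF/LEF sites)-firefly luciferase reporter were plated in DMEM with 1% FBS and treated with a 10-point, 1:3 dilution series from 10 μM (0.1% DMSO) for 36 to 48 h at 37° C. Luminescence was normalized to DMSO controls, and EC50 came from four-parameter nonlinear regression.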

For test [7], the system named is IL-6. The experiment in a line: IL-6 inhibition in LPS-stimulated human peripheral blood mononuclear cells (HTRF). Type of test: cell-based. To be noted: Homo sapiens, PBMC; for inhibition at 10 µM: read-out: percent value in parentheses below EC50 >10; for EC50: IL-6, LPS-stimulated huPBMCs, HTRF. In a few lines:
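Fresh human PBMCs (5000 cells/well, 1% FBS RPMI) preincubated with compound (10-point 1:3 series from 10 μM, 0.25% DMSO) 2 h at 37 °C, then stimulated with 50 ng/mL E. coli LPS for 22 h. IL-6 by HTRF 665/620 ratio; DMSO-normalized, EC50 from 4-parameter fit.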

Setting [8] is: DYRK1A kinase, method text calls the value IC50.

Where two headings read alike, the source gives them in different places.

GSK3β kinase, sequence (P49841 whole entry): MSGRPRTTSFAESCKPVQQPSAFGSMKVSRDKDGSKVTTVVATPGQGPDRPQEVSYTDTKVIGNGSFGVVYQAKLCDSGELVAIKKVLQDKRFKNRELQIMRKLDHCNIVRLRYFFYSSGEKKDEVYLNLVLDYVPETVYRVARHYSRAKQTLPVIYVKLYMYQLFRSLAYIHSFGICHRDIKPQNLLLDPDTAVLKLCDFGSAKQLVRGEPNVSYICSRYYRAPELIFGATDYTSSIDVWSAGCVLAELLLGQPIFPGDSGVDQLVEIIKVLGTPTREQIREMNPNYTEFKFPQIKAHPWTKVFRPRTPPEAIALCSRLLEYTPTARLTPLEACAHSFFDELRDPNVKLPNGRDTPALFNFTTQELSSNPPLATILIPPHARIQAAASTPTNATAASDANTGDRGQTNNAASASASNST

With `Cc1nnc(-c2ccc3cnc(NC(=O)N4CCC(NCC(F)F)CC4)cc3c2)s1` [Compound 168, 4-((2,2-Difluoroethyl)amino)-N-(6-(5-methyl-1,3,4-thiadiazol-2-yl)isoquinolin-3-yl)piperidine-1-carboxamide], the EC50 was above 10 µM in test [1]; 0.02 µM in test [2]; 1.29 µM in test [3]; 0.578 µM in test [4]; 0.004 µM in test [5] (setting [8]); above 10 µM in test [6]. In addition, in test [7], the EC50 was above 10 µM. For the same molecule, the inhibition at 10 µM in test [1] is 19.4%; in test [6] it was 42.2%; in test [7], 14.2%.
As to `[2H]C([2H])([2H])Oc1ccc(C(=O)Nc2cc3cc(-c4cncn4C)ccc3cn2)cc1` [Compound 87, 4-(Methoxy-d3)-N-(6-(1-methyl-1H-imidazol-5-yl)isoquinolin-3-yl) benzamide], the EC50 in test [1] was 0.489 µM; in test [2], 1.45 µM; in test [3], 0.132 µM; in test [4], 0.896 µM; in test [5] it was 0.003 µM; in test [6] it was 0.214 µM. Besides, a half-maximal response in test [7] (EC50) required 1.17 µM.
On to `Cc1ncc(-c2cc3cc(NC(=O)[C@H]4CC[C@H](N(C)C)CC4)ncc3cc2F)o1` [Compound 18, trans-4-(Dimethylamino)-N-(7-fluoro-6-(2-methyloxazol-5-yl)isoquinolin-3-yl)cyclohexane-1-carboxamide], for which the EC50 amounted to 0.587 µM in test [1]; 0.068 µM in test [2]; 0.149 µM in test [3]; 0.186 µM in test [4]; 0.003 µM in test [5] (setting [8]); 0.671 µM in test [6]. In test [7], this molecule returned an EC50 of 1.25 µM.
Consider `Cc1nnc(-c2ccc3cnc(NC(=O)C4CCN(CC(F)F)CC4)cc3c2)s1` [Compound 27, 1-(2,2-Difluoroethyl)-N-(6-(5-methyl-1,3,4-thiadiazol-2-yl)isoquinolin-3-yl)piperidine-4-carboxamide], for which the EC50 is 2.09 µM in test [1]; 0.011 µM in test [2]; 0.235 µM in test [3]; 0.104 µM in test [4]; 0.006 µM in test [5] (setting [8]); 0.927 µM in test [6]. Also, the EC50 in test [7] is above 10 µM. In addition, the inhibition at 10 µM in test [7] was 2.8%.
With `[2H]/C(C(=O)Nc1cc2cc(-c3cncn3C)ccc2cn1)=C(/[2H])c1c([2H])c([2H])c([2H])c([2H])c1[2H]` [Compound 94, (E)-N-(6-(1-Methyl-1H-imidazol-5-yl)isoquinolin-3-yl)-3-(phenyl-2,3,4,5,6-d5)acrylamide-2,3-d2], the EC50 came to 0.104 µM in test [1]; 0.276 µM in test [2]; 0.125 µM in test [3]; 0.244 µM in test [4]; 0.002 µM in test [5]; 0.088 µM in test [6]. Moreover, the EC50 in test [7] came out at 0.319 µM.
For `CC(C)C[N+]1(CC(C)C)CCC(C(=O)Nc2cc3cc(-c4cnn(C)c4)ccc3cn2)CC1` [Compound 170, 1,1-Diisobutyl-4-((6-(1-methyl-1H-pyrazol-4-yl)isoquinolin-3-yl)carbamoyl)piperidin-1-ium], the EC50 in test [1] is above 10 µM; in test [2], 0.052 µM; in test [3], 7.09 µM; in test [4], 9.91 µM; in test [5], 0.015 µM; in test [6] it was above 10 µM. Moreover, the EC50 in test [7] is above 10 µM. The inhibition at 10 µM in test [1] stood at 27%; in test [6], 23.1%; in test [7], 4.4%.
In the case of `Cc1ncc(-c2ccc3cnc(NC(=O)[C@H]4CC[C@H](CN5CCOCC5)CC4)cc3c2)o1` [Compound 69, trans-N-(6-(2-methyloxazol-5-yl)isoquinolin-3-yl)-4-(morpholinomethyl)cyclohexane-1-carboxamide], the EC50 amounted to 1.7 µM in test [1]; 0.07 µM in test [2]; 0.21 µM in test [3]; 0.516 µM in test [4]; 0.003 µM in test [5] (setting [8]); 0.927 µM in test [6]. Besides, the midpoint of the response in test [7], the EC50, lay at 1.02 µM.
Consider `COC1CCN(CC(=O)Nc2cc3cc(-c4cn(C)nn4)ccc3cn2)CC1` [Compound 54, 2-(4-Methoxypiperidin-1-yl)-N-(6-(1-methyl-1H-1,2,3-triazol-4-yl)isoquinolin-3-yl)acetamide], for which the EC50 turned out to be 3.21 µM in test [1]; 0.006 µM in test [2]; 0.412 µM in test [3]; 0.097 µM in test [4]; 0.007 µM in test [5] (setting [8]); 0.943 µM in test [6]. This molecule also yielded an EC50 in test [7] of 9.63 µM.
Turning to `Cn1cc(-c2cc(F)c3cnc(NC(=O)[C@H]4CC[C@H](NCC(F)F)CC4)cc3c2)cn1` [Compound 103, trans-4-((2,2-Difluoroethyl)amino)-N-(8-fluoro-6-(1-methyl-1H-pyrazol-4-yl)isoquinolin-3-yl)cyclohexane-1-carboxamide], the 50% effective concentration (EC50) in test [1] amounted to 6.08 µM; in test [2], 0.03 µM; in test [3], 0.392 µM; in test [4], 1.3 µM; in test [5] (setting [8]), 0.005 µM; in test [6], 2.97 µM. The same molecule displayed an EC50 in test [7] of 1.08 µM.
For the molecule `Cc1nnc(-c2ccc3cnc(NC(=O)N(C)C4CCN(C)CC4)cc3c2)s1` [Compound 29, 1-Methyl-3-(6-(5-methyl-1,3,4-thiadiazol-2-yl)isoquinolin-3-yl)-1-(1-methylpiperidin-4-yl)urea], the EC50 is above 10 µM in test [1]; 0.337 µM in test [2]; above 10 µM in test [3]; 3.4 µM in test [4]; 0.018 µM in test [5] (setting [8]); above 10 µM in test [6]. The molecule also registered an EC50 in test [7] above 10 µM. Further, the inhibition at 10 µM in test [1] is 28.2%; in test [3] (read-out: percent inhibition at 10 μM) it was 3.2%; in test [6], 45.6%; in test [7] it was 6%.
`[2H]/C(C(=O)Nc1cc2cc(-c3cnc(C)n3C)ccc2cn1)=C(/[2H])c1c([2H])c([2H])c([2H])c([2H])c1[2H]` [Compound 91, (E)-N-(6-(1,2-Dimethyl-1H-imidazol-5-yl)isoquinolin-3-yl)-3-(phenyl-2,3,4,5,6-d5)acrylamide-2,3-d2]: the EC50 in test [1] is 0.314 µM; in test [2] it was 0.454 µM; in test [3], 0.289 µM; in test [4], 0.068 µM; in test [5], 0.005 µM; in test [6], 0.197 µM. In addition, in test [7], the EC50 worked out at 0.679 µM.
Regarding `Cc1ncc(-c2cc3cc(NC(=O)[C@H]4CC[C@H](N5CCOCC5)CC4)ncc3cc2F)o1` [Compound 55, trans-N-(7-Fluoro-6-(2-methyloxazol-5-yl)isoquinolin-3-yl)-4-morpholinocyclohexane-1-carboxamide], the EC50 in test [1] came out at 1.3 µM; in test [2], 0.088 µM; in test [3], 0.678 µM; in test [4], 0.178 µM; in test [5] (setting [8]), 0.006 µM; in test [6], 3.7 µM. The molecule also registered an EC50 in test [7] above 10 µM. Further, the inhibition at 10 µM in test [7] stood at 18.3%.
Turning to `[2H]c1c([2H])c(C(=O)Nc2cc3cc(-c4cnc(C)n4C)ccc3cn2)c([2H])c([2H])c1F` [Compound 158, N-(6-(1,2-Dimethyl-1H-imidazol-5-yl)isoquinolin-3-yl)-4-fluorobenzamide-2,3,5,6-d4], the EC50 in test [1] is 0.781 µM; in test [2], 2.6 µM; in test [3], 1.22 µM; in test [4], above 10 µM; in test [5] it was 0.005 µM; in test [6], 0.514 µM. In test [7], this molecule returned an EC50 of 3.35 µM.
With `Cc1nnc(-c2ccc3cnc(NC(=O)[C@H]4CC[C@H](NCCF)CC4)cc3c2)s1` [Compound 200, trans-4-((2-Fluoroethyl)amino)-N-(6-(5-methyl-1,3,4-thiadiazol-2-yl)isoquinolin-3-yl)cyclohexane-1-carboxamide], the EC50 in test [1] was determined as 1.39 µM; in test [2] it was 0.014 µM; in test [3] it was 0.533 µM; in test [4] it was 0.095 µM; in test [5] (setting [8]), 0.006 µM; in test [6] it was 0.841 µM. The molecule also displayed an EC50 in test [7] of 3.98 µM.
For the molecule `COCCN[C@H]1CC[C@H](C(=O)Nc2cc3cc(-c4nnc(C)s4)ccc3cn2)CC1` [Compound 199, trans-4-((2-Methoxyethyl)amino)-N-(6-(5-methyl-1,3,4-thiadiazol-2-yl)isoquinolin-3-yl)cyclohexane-1-carboxamide], the EC50 in test [1] amounted to 1.65 µM; in test [2], 0.017 µM; in test [3], 3.2 µM; in test [4] it was 0.234 µM; in test [5] (setting [8]), 0.004 µM; in test [6] it was 0.982 µM. In test [7], this molecule registered a concentration giving a half-maximal response (EC50) of 3.86 µM.
